# Measurements: PubChem BioAssay (NCI)
#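 Five concentrations, 48 hours, 96-well plates. Here, GI50 denotes the concentration required for 50% inhibition of growth. At the TGI there is no net growth.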 Where a SMILES comes first, the peptide text is derived from it. [ ]: non-standard residue; d: D form. β3hI = CC[CH](C)[CH](N)CC(=O)O
# Experiments:
# Assay in all cases: NCI-60 cell line screen, 48 h
# LOX IMVI melanoma = system: LOX IMVI melanoma
# MDA-N = system: MDA-N
# RPMI-8226 leukemia = system: RPMI-8226 leukemia
# U251 CNS = system: U251 CNS
# NCI-H23 lung = system: NCI-H23 lung
# ACHN renal = system: ACHN renal
# DU-145 prostate = system: DU-145 prostate
# SF-539 CNS = system: SF-539 CNS
# UO-31 renal = system: UO-31 renal
# TK-10 renal = system: TK-10 renal
# COLO 205 colon = system: COLO 205 colon
# MCF7 breast = system: MCF7 breast
# HCT-15 colon = system: HCT-15 colon
# M14 melanoma = system: M14 melanoma
# UACC-62 melanoma = system: UACC-62 melanoma
# SF-268 CNS = system: SF-268 CNS
SMILES,TGI (LOX IMVI melanoma) [µM],TGI (MDA-N) [µM],TGI (RPMI-8226 leukemia) [µM],TGI (U251 CNS) [µM],TGI (NCI-H23 lung) [µM],TGI (ACHN renal) [µM],TGI (DU-145 prostate) [µM],TGI (SF-539 CNS) [µM],TGI (UO-31 renal) [µM],TGI (TK-10 renal) [µM],TGI (COLO 205 colon) [µM],TGI (MCF7 breast) [µM],TGI (HCT-15 colon) [µM],TGI (M14 melanoma) [µM],TGI (UACC-62 melanoma) [µM],TGI (SF-268 CNS) [µM],GI50 (NCI-H23 lung) [mM],GI50 (UACC-62 melanoma) [µM],GI50 (SF-268 CNS) [mM]
N/N=C1\CCCc2c1no[n+]2[O-],> 100,> 100,> 100,> 100,> 100,> 100,> 100,> 100,> 100,> 100,> 100,> 100,> 100,> 100,> 100,> 100,,,
CCOC(=O)CCC(NC(=O)c1ccc(Nc2nc3ccccc3nc2-c2cccs2)cc1)C(=O)OCC (stereo not given),> 100,> 100,> 100,> 100,> 100,> 100,> 100,> 100,> 100,> 100,> 100,> 100,> 100,> 100,> 100,> 100,,,
CC1(C)CN=C(Nc2cccc(C(F)(F)F)c2)S1,> 100,> 100,> 100,> 100,> 100,> 100,> 100,> 100,> 100,> 100,> 100,> 100,> 100,> 100,> 100,> 100,,,
CC(C)NC(=O)OCCN=C1c2ccccc2CCc2ccccc21,72.7,39.8,43.2,50.6,> 100,68.4,88.9,41.5,58.7,92.7,35.7,57.5,77.8,39.7,40.8,80.7,,,
ClC1=C(Cc2ccccc2)Cc2ccc3c(c21)CCC3,32.9,> 100,65.3,39.3,> 100,> 100,> 100,> 100,69.6,> 100,26.2,37.7,> 100,> 100,60.3,> 100,,,
O=C(O)CC/C(=N\Nc1nsc2ccccc12)c1ccc(Cl)cc1,25.7,> 100,45.9,82.4,59.2,> 80.6,> 100,> 89.8,> 67.1,> 67.6,> 100,> 100,53.5,> 65.8,50.6,> 89.3,,,
O=[N+]([O-])O.[Ga],> 8240,> 10000,2270,4930,> 10000,> 10000,> 10000,> 10000,> 7740,> 7990,> 9550,6200,5780,> 10000,> 10000,> 10000,1.26,892,3
CC(C)n1c2c([n+](C)c1/C=C/c1ccccc1)C(=O)c1ccccc1C2=O,0.971,0.686,8.96,0.738,0.412,10.9,0.948,0.363,10.1,2.39,0.0993,0.214,23.9,1.08,0.644,1.01,,,
O=c1[nH]nc(Cc2ccc(Cl)cc2)n1/N=C\CC/C=N\n1c(Cc2ccc(Cl)cc2)n[nH]c1=O,> 100,> 100,> 100,46,> 100,> 100,> 100,40.6,> 100,> 100,> 100,> 100,> 100,> 100,45.7,37.9,,,
CCC(C)C(CC(=O)N1CCCC1C(=O)NC(C(=O)NC(C(=O)NCC(=O)NC(CC(N)=O)C(=O)NC(C(=O)NC(C(=O)NC(CCCCN)C(N)=O)C(C)CC)C(C)CC)C(C)C)C(C)CC)NC(=O)C(N)C(C)CC (stereo not drawn) (H-I[β3hI]PIVGNIIK-NH2; configuration not given here),> 50,> 50,> 50,> 50,> 50,> 50,> 50,> 50,> 50,> 50,> 50,> 50,> 50,> 50,> 50,> 50,,,
Cn1c2ccccc2c(=NNc2ccccc2C(=O)O)c2ccccc21,25.6,46.4,53.3,34.6,76.8,48.2,> 100,36.1,64.5,75.2,34.1,30.5,27.5,53.5,54,56.3,,,
COc1ccc(/C=C/C(=O)N[C@@H]2C(=O)N3[C@@H]2SC(C)(C)[C@@H]3C(=O)O)cc1,> 100,> 100,> 100,> 100,> 100,> 100,> 100,> 100,> 100,> 100,> 100,> 100,> 100,> 100,> 100,> 100,,,
